Patent publication US6716827B1, “Complexes for immobilizing isothiocyanate natural precursors in cyclodextrins, preparation and use” (Commissariat a l'Energie Atomique, priority 1998, dated 2004)

How the values were obtained:
[1] = Solubility in aqueous solution of benzyl isothiocyanate formed by myrosinase in the α-cyclodextrin complex, followed by NMR; type: physicochemical; settings: complexed in α-cyclodextrin; formed by action of myrosinase on the glucosinolate complex; 50 mM deuterated phosphate buffer pH 6, 25° C.
Protocol: In this example, the inclusion complex formed in example 1 is converted into an inclusion complex of benzyl isothiocyanate in the cyclodextrin.
For this purpose, myrosinase is added to the solution of the complex prepared in example 1, then hydrolysis of the glucosinolate is followed under nuclear magnetic resonance.
The results are given in FIGS. 4, 5 and 6 which illustrate the NMR spectra obtained at 25° C. and 500 MHz, before the addition of myrosinase (FIG. 4), 1 hour after the addition of myrosinase (FIG. 5), and 17 hours after the addition of myrosinase (FIG. 6).

[2] = Solubility in water of benzyl isothiocyanate; type: physicochemical; settings: free compound, oily liquid

S=C=NCc1ccccc1 [benzyl isothiocyanate]
solubility in an aqueous solution [1]: soluble | solubility in water [2]: insoluble in water
